# Results as given in patent US8802597B2, “Herbicidal pyrimidines” (E I du Pont de Nemours and Company, priority 2003, dated 2014).
# Read-outs that look alike come from different tables or passages of the source.
# Columns and labels:
# Format in all cases: in vivo
# [1] = tested on: barnyardgrass (Echinochloa crus-galli); test: Test A pre/postemergence
# Method in brief: (§1)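 Compared with untreated controls, treated plants were visually rated for injury on a 0 (none) to 100 (complete control) scale about ten days after spraying. Pre- and postemergence applications used one solvent/surfactant formulation; postemergence plants measured 2–10 cm.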
# [2] = tested on: crabgrass (Digitaria sanguinalis); test: Test A pre/postemergence
# Method in brief: as §1
# [3] = tested on: giant foxtail (Setaria faberi); test: Test A pre/postemergence
# Method in brief: as §1
# [4] = tested on: morningglory (Ipomoea spp.); test: Test A pre/postemergence; conditions: for pest or weed control at 125 g/ha / pest or weed control at 500 g/ha: Ipomoea, 240 h, read-out: Plant response rating, Morningglory
# Method in brief: as §1
# [5] = tested on: redroot pigweed (Amaranthus retroflexus); test: Test A pre/postemergence; conditions: for pest or weed control at 125 g/ha / pest or weed control at 500 g/ha: Amaranthus retroflexus, 240 h, read-out: Plant response rating, Pigweed
# Method in brief: as §1
# [6] = tested on: velvetleaf (Abutilon theophrasti); test: Test A pre/postemergence; conditions: for pest or weed control at 125 g/ha / pest or weed control at 500 g/ha: Abutilon theophrasti, 240 h, read-out: Plant response rating, Velvetleaf
# Method in brief: as §1
# [7] = tested on: bermudagrass (Cynodon dactylon); test: Test C pre/postemergence; conditions: for Plant response rating (scale of 0 to 100), Bermudagrass / Bermudagrass plant response rating: Postemergence; for Bermudagrass plant response rating: scale 0 to 100 (0 no effect, 100 complete control)
# Method in brief: (§2)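 Test compounds, formulated in a non-phytotoxic solvent mix with surfactant, were applied to freshly planted seeds and, at the same time, to emerged plants at 1- to 4-leaf stage (2 to 18 cm). After 12 to 14 days in the greenhouse, response was scored visually versus controls, 0 = no effect, 100 = complete control.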
# [8] = tested on: giant foxtail (Setaria faberii); test: Test C pre/postemergence
# Method in brief: as §2
# [9] = tested on: johnsongrass (Sorghum halepense); test: Test C pre/postemergence
# Method in brief: as §2
# [10] = tested on: soybean (Glycine max); test: Test C pre/postemergence
# Method in brief: as §2
# [11] = Postemergence, 125 g ai/ha, 0 to 100 scale (0 no effect, 100 complete control)
# [12] = Postemergence, 500 g ai/ha, 0 to 100 scale (0 no effect, 100 complete control)
# [13] = Preemergence, 125 g ai/ha, 0 to 100 scale where 0 is no effect and 100 is complete control, approximately ten days
# [14] = Preemergence, 500 g ai/ha, 0 to 100 scale where 0 is no effect and 100 is complete control, approximately ten days
# [15] = Postemergence, 125 g ai/ha, scale 0 to 100 (0 no effect, 100 complete control)
# [16] = post-emergence, Postemergence, 125 g ai/ha, 0 to 100 scale (0 no effect, 100 complete control)
# [17] = post-emergence, Postemergence, 500 g ai/ha, 0 to 100 scale (0 no effect, 100 complete control)
# [18] = pre-emergence, Preemergence, 125 g ai/ha, 0 to 100 scale where 0 is no effect and 100 is complete control, approximately ten days
# [19] = pre-emergence, Preemergence, 500 g ai/ha, 0 to 100 scale where 0 is no effect and 100 is complete control, approximately ten days
# [20] = Preemergence, 16 g ai/ha, scale 0 to 100, 0 no effect, 100 complete control
structure (smiles),measurement,setting,value
COC(=O)c1nc(-c2ccc(Cl)cc2)nc(N)c1Br [Compound 83],"Plant response rating, Barnyardgrass",[1]; [11],0
same,"Plant response rating, Barnyardgrass",[1]; [12],10
same,"Plant response rating, Barnyardgrass",[1]; [13],0
same,"Plant response rating, Barnyardgrass",[1]; [14],5
same,"Plant response rating, Crabgrass",[2]; [11],0
same,"Plant response rating, Crabgrass",[2]; [12],10
same,"Plant response rating, Crabgrass",[2]; [13],0
same,"Plant response rating, Crabgrass",[2]; [14],5
same,"Plant response rating, Foxtail, Giant",[3]; [11],0
same,"Plant response rating, Foxtail, Giant",[3]; [12],10
same,"Plant response rating, Foxtail, Giant",[3]; [13],0
same,"Plant response rating, Foxtail, Giant",[3]; [14],0
same,"Plant response rating, Morningglory",[4]; [11],55
same,"Plant response rating, Morningglory",[4]; [12],75
same,"Plant response rating, Morningglory",[4]; [13],0
same,"Plant response rating, Morningglory",[4]; [14],10
same,"Plant response rating, Pigweed",[5]; [11],70
same,"Plant response rating, Pigweed",[5]; [12],85
same,"Plant response rating, Pigweed",[5]; [13],20
same,"Plant response rating, Pigweed",[5]; [14],50
same,"Plant response rating, Velvetleaf",[6]; [11],90
same,"Plant response rating, Velvetleaf",[6]; [12],90
same,"Plant response rating, Velvetleaf",[6]; [13],15
same,"Plant response rating, Velvetleaf",[6]; [14],30
same,"Plant response rating (scale of 0 to 100), Bermudagrass",[7]; 16 g ai/ha,0
same,"Plant response rating (scale of 0 to 100), Bermudagrass",[7]; 31 g ai/ha,5
same,Bermudagrass plant response rating,[7]; 62 g ai/ha,20
same,Bermudagrass plant response rating,[7]; 125 g ai/ha,55
same,"Plant response rating (scale of 0 to 100), Foxtail, Giant","[8]; Postemergence, 16 g ai/ha",0
same,"Plant response rating (scale of 0 to 100), Foxtail, Giant","[8]; Postemergence, 31 g ai/ha",0
same,"Plant response rating (scale of 0 to 100), Foxtail, Giant","[8]; Postemergence, 62 g ai/ha",20
same,"Foxtail, Giant plant response rating",[8]; [15],40
same,"Plant response rating (scale of 0 to 100), Johnsongrass","[9]; Postemergence, 16 g ai/ha",10
same,"Plant response rating (scale of 0 to 100), Johnsongrass","[9]; Postemergence, 31 g ai/ha",55
same,"Plant response rating (scale of 0 to 100), Johnsongrass","[9]; Postemergence, 62 g ai/ha",55
same,Johnsongrass plant response rating,[9]; [15],70
same,"Plant response rating (scale of 0 to 100), Soybean","[10]; Postemergence, 16 g ai/ha",85
same,"Plant response rating (scale of 0 to 100), Soybean","[10]; Postemergence, 31 g ai/ha",90
same,"Plant response rating (scale of 0 to 100), Soybean","[10]; Postemergence, 62 g ai/ha",100
same,Soybean plant response rating,[10]; [15],100
"Nc1nc(C2CC2)nc(C(=O)[O-])c1Cl.[Na+] [Compound 77, 6-amino-5-chloro-2-cyclopropyl-4-pyrimidinecarboxylic acid monosodium salt]",pest or weed control at 125 g/ha,"[1]; Echinochloa crus-galli, post-emergence, 240 h, Postemergence, 125 g ai/ha, 0 to 100 scale (0 no effect, 100 complete control), read-out: Plant response rating, Barnyardgrass",90%
same,pest or weed control at 500 g/ha,"[1]; Echinochloa crus-galli, post-emergence, 240 h, Postemergence, 500 g ai/ha, 0 to 100 scale (0 no effect, 100 complete control), read-out: Plant response rating, Barnyardgrass",90%
same,pest or weed control at 500 g/ha,"[1]; Echinochloa crus-galli, pre-emergence, 240 h, Preemergence, 500 g ai/ha, 0 to 100 scale where 0 is no effect and 100 is complete control, approximately ten days, read-out: Plant response rating, Barnyardgrass",100%
same,"Plant response rating, Barnyardgrass",[1]; [13],90
same,pest or weed control at 125 g/ha,"[2]; Digitaria sanguinalis, post-emergence, 240 h, Postemergence, 125 g ai/ha, 0 to 100 scale (0 no effect, 100 complete control), read-out: Plant response rating, Crabgrass",70%
same,pest or weed control at 125 g/ha,"[2]; Digitaria sanguinalis, pre-emergence, 240 h, Preemergence, 125 g ai/ha, 0 to 100 scale where 0 is no effect and 100 is complete control, approximately ten days, read-out: Plant response rating, Crabgrass",70%
same,pest or weed control at 500 g/ha,"[2]; Digitaria sanguinalis, pre-emergence, 240 h, Preemergence, 500 g ai/ha, 0 to 100 scale where 0 is no effect and 100 is complete control, approximately ten days, read-out: Plant response rating, Crabgrass",80%
same,"Plant response rating, Crabgrass",[2]; [12],90
same,"Plant response rating, Foxtail, Giant",[3]; [13],75
same,pest or weed control at 125 g/ha,"[3]; Setaria faberi, post-emergence, 240 h, Postemergence, 125 g ai/ha, 0 to 100 scale (0 no effect, 100 complete control), read-out: Plant response rating, Foxtail, Giant",85%
same,pest or weed control at 500 g/ha,"[3]; Setaria faberi, post-emergence, 240 h, Postemergence, 500 g ai/ha, 0 to 100 scale (0 no effect, 100 complete control), read-out: Plant response rating, Foxtail, Giant",90%
same,pest or weed control at 500 g/ha,"[3]; Setaria faberi, pre-emergence, 240 h, Preemergence, 500 g ai/ha, 0 to 100 scale where 0 is no effect and 100 is complete control, approximately ten days, read-out: Plant response rating, Foxtail, Giant",95%
same,pest or weed control at 125 g/ha,[4]; [16],95%
same,pest or weed control at 500 g/ha,[4]; [17],100%
same,pest or weed control at 125 g/ha,[4]; [18],100%
same,pest or weed control at 500 g/ha,[4]; [19],100%
same,pest or weed control at 125 g/ha,[5]; [16],95%
same,pest or weed control at 500 g/ha,[5]; [17],95%
same,pest or weed control at 125 g/ha,[5]; [18],85%
same,pest or weed control at 500 g/ha,[5]; [19],95%
same,pest or weed control at 125 g/ha,[6]; [16],95%
same,pest or weed control at 500 g/ha,[6]; [17],100%
same,pest or weed control at 125 g/ha,[6]; [18],100%
same,pest or weed control at 500 g/ha,[6]; [19],100%
same,pest or weed control at 31 g/ha,"[7]; Cynodon dactylon, pre-emergence, Preemergence, 31 g ai/ha, scale 0 to 100, 0 no effect, 100 complete control, read-out: Plant response rating, Bermudagrass",0%
same,pest or weed control at 62 g/ha,"[7]; Cynodon dactylon, pre-emergence, Preemergence, 62 g ai/ha, scale 0 to 100, 0 no effect, 100 complete control, read-out: Plant response rating, Bermudagrass",0%
same,pest or weed control at 125 g/ha,"[7]; Cynodon dactylon, pre-emergence, Preemergence, 125 g ai/ha, scale 0 to 100, read-out: Plant response rating, Bermudagrass",0%
same,"Plant response rating, Bermudagrass",[7]; [20],0
same,"Plant response rating, Foxtail, Giant",[8]; [20],0
same,pest or weed control at 31 g/ha,"[8]; Setaria faberi, pre-emergence, Preemergence, 31 g ai/ha, scale 0 to 100, 0 no effect, 100 complete control, read-out: Plant response rating, Foxtail, Giant",0%
same,pest or weed control at 62 g/ha,"[8]; Setaria faberi, pre-emergence, Preemergence, 62 g ai/ha, scale 0 to 100, 0 no effect, 100 complete control, read-out: Plant response rating, Foxtail, Giant",0%
same,pest or weed control at 125 g/ha,"[8]; Setaria faberi, pre-emergence, Preemergence, 125 g ai/ha, scale 0 to 100, read-out: Plant response rating, Foxtail, Giant",0%
same,"Plant response rating, Johnsongrass",[9]; [20],0
same,"Plant response rating, Johnsongrass","[9]; Preemergence, 62 g ai/ha, scale 0 to 100, 0 no effect, 100 complete control",0
same,"Plant response rating, Johnsongrass","[9]; Preemergence, 125 g ai/ha, scale 0 to 100",0
same,pest or weed control at 31 g/ha,"[9]; Sorghum halepense, pre-emergence, Preemergence, 31 g ai/ha, scale 0 to 100, 0 no effect, 100 complete control, read-out: Plant response rating, Johnsongrass",0%
same,plant injury at 31 g/ha,"[10]; Glycine max, pre-emergence, Preemergence, 31 g ai/ha, scale 0 to 100, 0 no effect, 100 complete control, read-out: Plant response rating, Soybean",100%
same,plant injury at 62 g/ha,"[10]; Glycine max, pre-emergence, Preemergence, 62 g ai/ha, scale 0 to 100, 0 no effect, 100 complete control, read-out: Plant response rating, Soybean",100%
same,"Plant response rating, Soybean",[10]; [20],40
